Results: the OligoGym collection
Oligonucleotides are given in HELM: sugar(base)linkage, 5' to 3'; d 2'-deoxyribose, r ribose, m 2'-O-methylribose, p phosphate. ss, as = sense and antisense strand

molecular target: Mmp7 (rat); experiment: reporter assay of Huesken 2005; conditions: siRNA
Further: test concentration or dose not given here.

Substance	normalised inhibition (eCFP-eYFP dual reporter)
RNA1{r(C)p.r(U)p.r(C)p.r(U)p.r(C)p.r(U)p.r(G)p.r(G)p.r(G)p.r(U)p.r(C)p.r(U)p.r(G)p.r(G)p.r(G)p.r(U)p.r(C)p.r(A)p.r(C)p.d(T)p.d(T)}|RNA2{r(G)p.r(U)p.r(G)p.r(A)p.r(C)p.r(C)p.r(C)p.r(A)p.r(G)p.r(A)p.r(C)p.r(C)p.r(C)p.r(A)p.r(G)p.r(A)p.r(G)p.r(A)p.r(G)p.d(T)p.d(G)}$$$RNA1{StrandType:ss}|RNA2{StrandType:as}$	73.1%
RNA1{r(C)p.r(U)p.r(G)p.r(A)p.r(G)p.r(G)p.r(G)p.r(A)p.r(A)p.r(A)p.r(U)p.r(G)p.r(C)p.r(A)p.r(G)p.r(A)p.r(A)p.r(G)p.r(U)p.d(T)p.d(T)}|RNA2{r(A)p.r(C)p.r(U)p.r(U)p.r(C)p.r(U)p.r(G)p.r(C)p.r(A)p.r(U)p.r(U)p.r(U)p.r(C)p.r(C)p.r(C)p.r(U)p.r(C)p.r(A)p.r(G)p.d(T)p.d(T)}$$$RNA1{StrandType:ss}|RNA2{StrandType:as}$	83.4%
RNA1{r(C)p.r(U)p.r(G)p.r(G)p.r(G)p.r(U)p.r(C)p.r(U)p.r(G)p.r(G)p.r(G)p.r(U)p.r(C)p.r(A)p.r(C)p.r(U)p.r(C)p.r(U)p.r(U)p.d(T)p.d(T)}|RNA2{r(A)p.r(A)p.r(G)p.r(A)p.r(G)p.r(U)p.r(G)p.r(A)p.r(C)p.r(C)p.r(C)p.r(A)p.r(G)p.r(A)p.r(C)p.r(C)p.r(C)p.r(A)p.r(G)p.d(A)p.d(G)}$$$RNA1{StrandType:ss}|RNA2{StrandType:as}$	87.6%
RNA1{r(C)p.r(U)p.r(U)p.r(C)p.r(C)p.r(C)p.r(A)p.r(U)p.r(U)p.r(U)p.r(G)p.r(A)p.r(U)p.r(G)p.r(G)p.r(G)p.r(C)p.r(C)p.r(A)p.d(T)p.d(T)}|RNA2{r(U)p.r(G)p.r(G)p.r(C)p.r(C)p.r(C)p.r(A)p.r(U)p.r(C)p.r(A)p.r(A)p.r(A)p.r(U)p.r(G)p.r(G)p.r(G)p.r(A)p.r(A)p.r(G)p.d(T)p.d(T)}$$$RNA1{StrandType:ss}|RNA2{StrandType:as}$	85%
RNA1{r(G)p.r(A)p.r(A)p.r(A)p.r(C)p.r(A)p.r(C)p.r(U)p.r(C)p.r(U)p.r(A)p.r(G)p.r(G)p.r(C)p.r(C)p.r(A)p.r(U)p.r(G)p.r(C)p.d(T)p.d(T)}|RNA2{r(G)p.r(C)p.r(A)p.r(U)p.r(G)p.r(G)p.r(C)p.r(C)p.r(U)p.r(A)p.r(G)p.r(A)p.r(G)p.r(U)p.r(G)p.r(U)p.r(U)p.r(U)p.r(C)p.d(C)p.d(T)}$$$RNA1{StrandType:ss}|RNA2{StrandType:as}$	53.7%
RNA1{r(G)p.r(A)p.r(A)p.r(C)p.r(U)p.r(U)p.r(C)p.r(C)p.r(U)p.r(G)p.r(U)p.r(U)p.r(U)p.r(G)p.r(U)p.r(U)p.r(G)p.r(C)p.r(C)p.d(T)p.d(T)}|RNA2{r(G)p.r(G)p.r(C)p.r(A)p.r(A)p.r(C)p.r(A)p.r(A)p.r(A)p.r(C)p.r(A)p.r(G)p.r(G)p.r(A)p.r(A)p.r(G)p.r(U)p.r(U)p.r(C)p.d(A)p.d(C)}$$$RNA1{StrandType:ss}|RNA2{StrandType:as}$	53.6%
RNA1{r(G)p.r(A)p.r(A)p.r(G)p.r(C)p.r(C)p.r(C)p.r(A)p.r(G)p.r(G)p.r(U)p.r(G)p.r(U)p.r(G)p.r(G)p.r(A)p.r(G)p.r(U)p.r(G)p.d(T)p.d(T)}|RNA2{r(C)p.r(A)p.r(C)p.r(U)p.r(C)p.r(C)p.r(A)p.r(C)p.r(A)p.r(C)p.r(C)p.r(U)p.r(G)p.r(G)p.r(G)p.r(C)p.r(U)p.r(U)p.r(C)p.d(T)p.d(G)}$$$RNA1{StrandType:ss}|RNA2{StrandType:as}$	94%
RNA1{r(G)p.r(A)p.r(A)p.r(G)p.r(U)p.r(G)p.r(A)p.r(C)p.r(C)p.r(G)p.r(C)p.r(A)p.r(C)p.r(U)p.r(U)p.r(C)p.r(A)p.r(G)p.r(U)p.d(T)p.d(T)}|RNA2{r(A)p.r(C)p.r(U)p.r(G)p.r(A)p.r(A)p.r(G)p.r(U)p.r(G)p.r(C)p.r(G)p.r(G)p.r(U)p.r(C)p.r(A)p.r(C)p.r(U)p.r(U)p.r(C)p.d(T)p.d(C)}$$$RNA1{StrandType:ss}|RNA2{StrandType:as}$	40.5%
RNA1{r(G)p.r(A)p.r(A)p.r(U)p.r(U)p.r(A)p.r(U)p.r(C)p.r(U)p.r(U)p.r(A)p.r(G)p.r(G)p.r(A)p.r(A)p.r(A)p.r(U)p.r(U)p.r(U)p.d(T)p.d(T)}|RNA2{r(A)p.r(A)p.r(A)p.r(U)p.r(U)p.r(U)p.r(C)p.r(C)p.r(U)p.r(A)p.r(A)p.r(G)p.r(A)p.r(U)p.r(A)p.r(A)p.r(U)p.r(U)p.r(C)p.d(T)p.d(G)}$$$RNA1{StrandType:ss}|RNA2{StrandType:as}$	116%
RNA1{r(G)p.r(A)p.r(C)p.r(U)p.r(U)p.r(C)p.r(A)p.r(G)p.r(U)p.r(C)p.r(U)p.r(U)p.r(A)p.r(C)p.r(A)p.r(A)p.r(A)p.r(G)p.r(G)p.d(T)p.d(T)}|RNA2{r(C)p.r(C)p.r(U)p.r(U)p.r(U)p.r(G)p.r(U)p.r(A)p.r(A)p.r(G)p.r(A)p.r(C)p.r(U)p.r(G)p.r(A)p.r(A)p.r(G)p.r(U)p.r(C)p.d(T)p.d(T)}$$$RNA1{StrandType:ss}|RNA2{StrandType:as}$	92.9%
RNA1{r(G)p.r(A)p.r(G)p.r(G)p.r(G)p.r(A)p.r(A)p.r(A)p.r(U)p.r(G)p.r(C)p.r(A)p.r(G)p.r(A)p.r(A)p.r(G)p.r(U)p.r(U)p.r(C)p.d(T)p.d(T)}|RNA2{r(G)p.r(A)p.r(A)p.r(C)p.r(U)p.r(U)p.r(C)p.r(U)p.r(G)p.r(C)p.r(A)p.r(U)p.r(U)p.r(U)p.r(C)p.r(C)p.r(C)p.r(U)p.r(C)p.d(A)p.d(G)}$$$RNA1{StrandType:ss}|RNA2{StrandType:as}$	97.5%
RNA1{r(G)p.r(A)p.r(G)p.r(U)p.r(G)p.r(C)p.r(C)p.r(A)p.r(G)p.r(A)p.r(U)p.r(G)p.r(U)p.r(U)p.r(G)p.r(C)p.r(A)p.r(G)p.r(A)p.d(T)p.d(T)}|RNA2{r(U)p.r(C)p.r(U)p.r(G)p.r(C)p.r(A)p.r(A)p.r(C)p.r(A)p.r(U)p.r(C)p.r(U)p.r(G)p.r(G)p.r(C)p.r(A)p.r(C)p.r(U)p.r(C)p.d(C)p.d(A)}$$$RNA1{StrandType:ss}|RNA2{StrandType:as}$	104%
RNA1{r(G)p.r(A)p.r(U)p.r(G)p.r(A)p.r(G)p.r(U)p.r(A)p.r(C)p.r(U)p.r(G)p.r(G)p.r(A)p.r(C)p.r(G)p.r(G)p.r(A)p.r(U)p.r(G)p.d(T)p.d(T)}|RNA2{r(C)p.r(A)p.r(U)p.r(C)p.r(C)p.r(G)p.r(U)p.r(C)p.r(C)p.r(A)p.r(G)p.r(U)p.r(A)p.r(C)p.r(U)p.r(C)p.r(A)p.r(U)p.r(C)p.d(C)p.d(T)}$$$RNA1{StrandType:ss}|RNA2{StrandType:as}$	87.4%
RNA1{r(G)p.r(A)p.r(U)p.r(G)p.r(G)p.r(U)p.r(G)p.r(A)p.r(G)p.r(G)p.r(A)p.r(C)p.r(U)p.r(C)p.r(A)p.r(G)p.r(G)p.r(C)p.r(G)p.d(T)p.d(T)}|RNA2{r(C)p.r(G)p.r(C)p.r(C)p.r(U)p.r(G)p.r(A)p.r(G)p.r(U)p.r(C)p.r(C)p.r(U)p.r(C)p.r(A)p.r(C)p.r(C)p.r(A)p.r(U)p.r(C)p.d(C)p.d(G)}$$$RNA1{StrandType:ss}|RNA2{StrandType:as}$	61.8%
RNA1{r(G)p.r(A)p.r(U)p.r(G)p.r(U)p.r(U)p.r(G)p.r(C)p.r(A)p.r(G)p.r(A)p.r(A)p.r(U)p.r(U)p.r(C)p.r(U)p.r(C)p.r(A)p.r(C)p.d(T)p.d(T)}|RNA2{r(G)p.r(U)p.r(G)p.r(A)p.r(G)p.r(A)p.r(A)p.r(U)p.r(U)p.r(C)p.r(U)p.r(G)p.r(C)p.r(A)p.r(A)p.r(C)p.r(A)p.r(U)p.r(C)p.d(T)p.d(G)}$$$RNA1{StrandType:ss}|RNA2{StrandType:as}$	119%
RNA1{r(G)p.r(C)p.r(A)p.r(A)p.r(G)p.r(G)p.r(G)p.r(G)p.r(A)p.r(G)p.r(A)p.r(U)p.r(C)p.r(A)p.r(C)p.r(G)p.r(G)p.r(A)p.r(G)p.d(T)p.d(T)}|RNA2{r(C)p.r(U)p.r(C)p.r(C)p.r(G)p.r(U)p.r(G)p.r(A)p.r(U)p.r(C)p.r(U)p.r(C)p.r(C)p.r(C)p.r(C)p.r(U)p.r(U)p.r(G)p.r(C)p.d(G)p.d(A)}$$$RNA1{StrandType:ss}|RNA2{StrandType:as}$	90.5%
RNA1{r(G)p.r(C)p.r(A)p.r(G)p.r(A)p.r(A)p.r(U)p.r(U)p.r(A)p.r(U)p.r(C)p.r(U)p.r(U)p.r(A)p.r(G)p.r(G)p.r(A)p.r(A)p.r(A)p.d(T)p.d(T)}|RNA2{r(U)p.r(U)p.r(U)p.r(C)p.r(C)p.r(U)p.r(A)p.r(A)p.r(G)p.r(A)p.r(U)p.r(A)p.r(A)p.r(U)p.r(U)p.r(C)p.r(U)p.r(G)p.r(C)p.d(G)p.d(C)}$$$RNA1{StrandType:ss}|RNA2{StrandType:as}$	132%
RNA1{r(G)p.r(C)p.r(A)p.r(G)p.r(A)p.r(A)p.r(U)p.r(U)p.r(C)p.r(U)p.r(C)p.r(A)p.r(C)p.r(U)p.r(A)p.r(A)p.r(U)p.r(G)p.r(C)p.d(T)p.d(T)}|RNA2{r(G)p.r(C)p.r(A)p.r(U)p.r(U)p.r(A)p.r(G)p.r(U)p.r(G)p.r(A)p.r(G)p.r(A)p.r(A)p.r(U)p.r(U)p.r(C)p.r(U)p.r(G)p.r(C)p.d(A)p.d(A)}$$$RNA1{StrandType:ss}|RNA2{StrandType:as}$	94.3%
RNA1{r(G)p.r(C)p.r(A)p.r(G)p.r(A)p.r(C)p.r(A)p.r(U)p.r(C)p.r(A)p.r(U)p.r(A)p.r(A)p.r(U)p.r(U)p.r(G)p.r(G)p.r(C)p.r(U)p.d(T)p.d(T)}|RNA2{r(A)p.r(G)p.r(C)p.r(C)p.r(A)p.r(A)p.r(U)p.r(U)p.r(A)p.r(U)p.r(G)p.r(A)p.r(U)p.r(G)p.r(U)p.r(C)p.r(U)p.r(G)p.r(C)p.d(A)p.d(G)}$$$RNA1{StrandType:ss}|RNA2{StrandType:as}$	95.9%
RNA1{r(G)p.r(C)p.r(A)p.r(G)p.r(U)p.r(G)p.r(G)p.r(A)p.r(C)p.r(A)p.r(A)p.r(A)p.r(C)p.r(U)p.r(G)p.r(A)p.r(G)p.r(G)p.r(G)p.d(T)p.d(T)}|RNA2{r(C)p.r(C)p.r(C)p.r(U)p.r(C)p.r(A)p.r(G)p.r(U)p.r(U)p.r(U)p.r(G)p.r(U)p.r(C)p.r(C)p.r(A)p.r(C)p.r(U)p.r(G)p.r(C)p.d(A)p.d(C)}$$$RNA1{StrandType:ss}|RNA2{StrandType:as}$	32.3%
